According to patent US7517517B2 (Janssen Pharmaceutica N.V., priority 2002, dated 2009):
Marks after values point to notes of the source that are not given here.

Assays:
[1] = target: T1, rat mGlu5 receptor (Rattus norvegicus, UniProt P31424); assay: [3H]Compound A binding to membranes from CHO-dhfr− cells expressing the rat mGlu5 receptor; conditions: 20 nM [3H]Compound A, 40 μg membranes; Compound 135 as blanc
T1 construct: host or cells: CHO-dhfr- cells
Procedure: (§1) Confluent cells were washed in ice-cold phosphate-buffered saline and stored at −20° C. until membrane preparation. After thawing, cells were suspended in 50 mM Tris-HCl, pH 7.4 and collected through centrifugation for 10 min at 23,500 g at 4° C. The cells were lysed in 10 mM hypotonic Tris-HCl, pH 7.4. After recentrifugation for 20 min at 30,000 g at 4° C., the pellet was homogenized with an Ultra Turrax homogenizer in 50 mM Tris-HCl, pH 7.4. Protein concentrations were measured by the Bio-Rad protein assay using bovine serum albumin as standard.
(§2) After thawing, the membranes were homogenized using an Ultra Turrax homogenizer and suspended in ice-cold binding buffer containing 50 mM Tris-HCl (pH 7.4), 1.2 mM MgCl2, 2 mM CaCl2. For [^3H]Compound A binding, 20 to 160 μg membrane protein and a final concentration of 20 nM [^3H]Compound A was used. As indicated in the results section, different blancs were used to define non-specific binding. Incubation time and temperature as well as filtration were as described for rat mGlu1a receptor CHO-dhfr^− membranes. Expression of rat mGlu2, -3, -5 and mGlu6 receptors was confirmed by specific binding of [^3H]LY341495 (mGlu2, -3 and -6) or [^3H]MPEP (mGlu5). For [^3H]LY341495 binding, 1 nM (mGlu2 and mGlu3) or 10 nM (mGlu6) [^3H]LY341495 was used. […] Assay mixtures were incubated for 30 min (mGlu2 and mGlu3) or 60 min (mGlu6) at 4° C. […]

[2] = target: T2, rat mGlu4 receptor (Rattus norvegicus, UniProt P31423); assay: [3H]Compound A binding to membranes from CHO-dhfr− cells expressing the rat mGlu4 receptor; conditions: 20 nM [3H]Compound A, 40 μg membranes
T2 construct: host or cells: CHO-dhfr- cells
T2 sequence (P31423 33-912): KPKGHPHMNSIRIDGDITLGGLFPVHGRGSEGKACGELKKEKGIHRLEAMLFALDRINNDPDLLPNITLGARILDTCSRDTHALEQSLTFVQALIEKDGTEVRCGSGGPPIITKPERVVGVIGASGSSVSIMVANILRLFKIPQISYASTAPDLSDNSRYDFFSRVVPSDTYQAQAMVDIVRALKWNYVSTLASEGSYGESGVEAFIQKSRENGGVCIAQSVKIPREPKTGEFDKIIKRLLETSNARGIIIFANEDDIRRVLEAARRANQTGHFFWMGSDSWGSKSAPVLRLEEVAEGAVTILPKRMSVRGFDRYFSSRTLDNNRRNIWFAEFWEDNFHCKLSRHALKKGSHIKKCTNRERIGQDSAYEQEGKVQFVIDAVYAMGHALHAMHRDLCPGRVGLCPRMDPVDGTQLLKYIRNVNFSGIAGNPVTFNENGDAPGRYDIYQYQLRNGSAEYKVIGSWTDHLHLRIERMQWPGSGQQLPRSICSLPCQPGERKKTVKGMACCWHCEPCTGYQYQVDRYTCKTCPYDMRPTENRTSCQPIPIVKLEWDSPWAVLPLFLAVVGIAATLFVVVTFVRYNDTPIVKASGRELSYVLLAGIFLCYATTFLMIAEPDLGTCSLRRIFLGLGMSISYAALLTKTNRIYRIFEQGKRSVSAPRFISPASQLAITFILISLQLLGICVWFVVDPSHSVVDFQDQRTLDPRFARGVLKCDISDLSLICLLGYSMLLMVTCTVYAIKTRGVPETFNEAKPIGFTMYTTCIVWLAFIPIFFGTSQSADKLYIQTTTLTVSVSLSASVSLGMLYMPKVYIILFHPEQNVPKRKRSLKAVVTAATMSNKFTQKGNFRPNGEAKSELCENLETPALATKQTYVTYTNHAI
Procedure: as §1, §2

[3] = target: T3, rat mGlu1a receptor (Rattus norvegicus, UniProt P23385); assay: [3H]Compound A binding to rat mGlu1a receptor CHO-dhfr− membranes (saturation, kinetics, inhibition); conditions: for observed association rate constant (kob): 2.5 nM radioligand
T3 construct: host or cells: CHO-dhfr- cells
T3 sequence (P23385 19-1199): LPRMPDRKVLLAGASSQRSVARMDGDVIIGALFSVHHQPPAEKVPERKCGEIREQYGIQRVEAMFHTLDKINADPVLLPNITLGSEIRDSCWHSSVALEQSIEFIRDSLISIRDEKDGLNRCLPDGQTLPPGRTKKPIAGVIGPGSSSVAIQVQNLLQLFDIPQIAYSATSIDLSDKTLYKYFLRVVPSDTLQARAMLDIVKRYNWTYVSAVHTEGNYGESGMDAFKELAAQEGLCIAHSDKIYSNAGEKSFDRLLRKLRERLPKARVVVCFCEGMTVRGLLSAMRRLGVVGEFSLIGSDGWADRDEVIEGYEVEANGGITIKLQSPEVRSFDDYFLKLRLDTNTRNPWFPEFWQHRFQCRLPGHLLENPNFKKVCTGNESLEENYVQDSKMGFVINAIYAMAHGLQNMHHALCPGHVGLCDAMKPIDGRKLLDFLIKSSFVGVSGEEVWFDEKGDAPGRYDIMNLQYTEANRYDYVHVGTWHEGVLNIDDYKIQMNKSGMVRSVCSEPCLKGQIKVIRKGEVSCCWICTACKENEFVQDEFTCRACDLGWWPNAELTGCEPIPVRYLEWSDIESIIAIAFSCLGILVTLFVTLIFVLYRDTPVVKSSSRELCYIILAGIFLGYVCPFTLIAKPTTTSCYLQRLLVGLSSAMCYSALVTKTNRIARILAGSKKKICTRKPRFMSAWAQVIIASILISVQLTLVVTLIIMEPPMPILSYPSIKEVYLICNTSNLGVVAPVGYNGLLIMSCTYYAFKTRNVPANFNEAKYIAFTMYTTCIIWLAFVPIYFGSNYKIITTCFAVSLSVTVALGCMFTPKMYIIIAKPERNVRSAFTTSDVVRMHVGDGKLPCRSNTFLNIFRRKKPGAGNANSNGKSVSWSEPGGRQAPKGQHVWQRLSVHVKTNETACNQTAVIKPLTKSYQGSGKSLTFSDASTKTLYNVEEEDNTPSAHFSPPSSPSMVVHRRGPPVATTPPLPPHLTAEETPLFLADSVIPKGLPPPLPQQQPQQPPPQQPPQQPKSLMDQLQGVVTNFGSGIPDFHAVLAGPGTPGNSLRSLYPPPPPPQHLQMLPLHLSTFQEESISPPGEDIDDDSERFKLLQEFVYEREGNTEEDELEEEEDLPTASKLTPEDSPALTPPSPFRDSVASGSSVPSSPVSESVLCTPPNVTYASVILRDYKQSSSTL

[4] = target: mGlu1 receptor (Rattus norvegicus, UniProt P23385); assay: [3H]Compound A binding and autoradiography on rat brain sections
Procedure: Tissue preparation. Male Wistar rats (200 g) were sacrificed by decapitation. Brains were immediately removed from the skull and were rapidly frozen in dry-ice-cooled 2-methylbutane (−40° C.). Brains were then stored at −70° C. until sectioning. Twenty-micrometer-thick sagittal sections were cut using a Leica C3050 cryostat microtome (Leica Microsystems, Wetzlar, Germany) and thaw-mounted on SuperFrost Plus microscope slides (Menzle-glaser, Germany). The sections were then kept at −70° C. until use.
Receptor autoradiography. Sections were thawed and dried under a stream of cold air, preincubated (3×5 min) in 50 mM Tris-HCl, 1.2 mM MgCl2, 2 mM CaCl2, 0.1% BSA pH 7.4 at room temperature. […] After the incubation, the excess of radioligand was washed off (3×5 min) in ice-cold buffer containing 50 mM Tris-HCl, 1.2 mM MgCl2 and 2 mM CaCl2, followed by a rapid dip in cold distilled water. The sections were dried under a stream of cold air and then exposed to [^3H]Hyperfilm (Amersham, UK) for 6 weeks at room temperature. The films were developed manually in Kodak D19 and fixed with Kodak Readymatic. Some sections were exposed to a Fuji Imaging Plate for 2 days at room temperature and scanned using a Fujix Bass 2000 phosphoimager.

[5] = [3H]Compound A saturation binding in presence of BAY 36-7620 (100 nM), mean ± SD, 3 experiments
[6] = [3H]Compound A saturation binding in presence of CPCCOEt (30 μM), mean ± SD, 3 experiments
[7] = [3H]Compound A saturation binding in presence of NPS 2390 (10 nM), mean ± SD, 3 experiments
[8] = [3H]Compound A saturation binding, control (absence of antagonist), mean ± SD, 3 experiments

T1 sequence (P31424 21-1203): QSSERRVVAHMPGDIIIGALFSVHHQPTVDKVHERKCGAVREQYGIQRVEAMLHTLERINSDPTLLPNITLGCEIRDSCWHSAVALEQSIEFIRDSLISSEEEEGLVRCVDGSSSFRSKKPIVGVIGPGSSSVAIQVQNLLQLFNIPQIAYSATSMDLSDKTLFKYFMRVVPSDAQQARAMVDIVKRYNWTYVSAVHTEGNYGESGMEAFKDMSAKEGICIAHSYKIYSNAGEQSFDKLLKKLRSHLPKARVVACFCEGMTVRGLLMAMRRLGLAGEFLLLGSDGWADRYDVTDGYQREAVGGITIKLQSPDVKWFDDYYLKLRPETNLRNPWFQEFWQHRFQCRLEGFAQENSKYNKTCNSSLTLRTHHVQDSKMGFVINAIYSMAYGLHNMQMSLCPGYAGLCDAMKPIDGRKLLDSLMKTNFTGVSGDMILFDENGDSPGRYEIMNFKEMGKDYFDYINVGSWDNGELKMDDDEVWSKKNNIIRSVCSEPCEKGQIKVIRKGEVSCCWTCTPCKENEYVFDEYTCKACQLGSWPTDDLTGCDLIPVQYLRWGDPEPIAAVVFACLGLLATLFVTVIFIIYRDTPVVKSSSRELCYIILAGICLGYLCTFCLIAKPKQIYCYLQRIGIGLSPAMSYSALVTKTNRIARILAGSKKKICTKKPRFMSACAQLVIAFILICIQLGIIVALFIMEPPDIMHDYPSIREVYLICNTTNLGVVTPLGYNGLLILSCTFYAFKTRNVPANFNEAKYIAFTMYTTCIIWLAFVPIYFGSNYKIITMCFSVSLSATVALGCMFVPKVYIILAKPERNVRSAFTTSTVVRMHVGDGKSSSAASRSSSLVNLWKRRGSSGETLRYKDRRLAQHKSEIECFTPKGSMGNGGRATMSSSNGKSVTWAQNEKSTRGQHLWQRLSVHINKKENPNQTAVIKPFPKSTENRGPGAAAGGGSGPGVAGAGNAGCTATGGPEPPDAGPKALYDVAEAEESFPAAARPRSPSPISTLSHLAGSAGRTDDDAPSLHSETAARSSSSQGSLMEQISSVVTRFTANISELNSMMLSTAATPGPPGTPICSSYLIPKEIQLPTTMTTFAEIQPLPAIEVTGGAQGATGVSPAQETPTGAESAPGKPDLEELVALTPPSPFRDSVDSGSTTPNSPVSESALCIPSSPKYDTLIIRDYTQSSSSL

## [3H]c1ccc(CC(=O)c2ccc3nc4c(cc3c2)CCCO4)cc1 [[^3H]Compound A]
[1]
  SB (fmoles/mg protein), mGlu5: 38 fmoles/mg protein
[2]; Compound 135 as blanc
  SB (fmoles/mg protein), mGlu4: 82 fmoles/mg protein
[2]; various blancs: 0.1 mM L-SOP
  SB (fmoles/mg protein), mGlu4: 57^b fmoles/mg protein
[3]; 10 nM [3H]Compound A, 20 μg membranes, Compound 135 as blanc, mean ± SD of 3 experiments
  SB (fmoles/mg protein), mGlu1: 6057 fmoles/mg protein
[3]; 20 μg protein per assay, non-specific binding with 1 μM compound 135
  specific binding as % of the total binding: ~92%
[3]; 4° C.
  koff: 0.00208 s⁻¹
  specific binding after 2 min incubation as % of the quantity bound at equilibrium: about 70%
  time to complete displacement after addition of excess compound 135: approximately 45 min
  observed association rate constant (kob): 0.6285 min⁻¹
[3]; 4° C., read-out: kon (kob−koff/radioligand concentration) (converted)
  kon: 1.68e+06 M⁻¹ s⁻¹
[3]; 25° C.
  time to dissociation after addition of 1 μM compound 135: ≤ 2 min
  observed association rate constant (kob): 2.571 min⁻¹
[3]; 37° C.
  observed association rate constant (kob): 1.523 min⁻¹
[3]; [5]
  Bmax: 5872 ± 1018 fmoles/mg protein
  Kd: 5.21 ± 1.2 nM
[3]; [6]
  Bmax: 7009 ± 1231 fmoles/mg protein
  Kd: 3.17 ± 0.9 nM
[3]; [7]
  Bmax: 6887 ± 2804 fmoles/mg protein
  Kd: 2.9 ± 0.2 nM
[3]; [8]
  Bmax: 7284 ± 970 fmoles/mg protein
  Kd: 0.73 ± 0.09 nM
[3]; each incubation temperature (4, 25, 37° C.)
  incubation time to maximal binding: ≤ 5 min
[3]; pH 6
  decrease of specific binding at pH 6: 22%
[3]; rat mGlu1a receptor CHO-dhfr− membranes
  more binding sites labelled than [3H]quisqualate: ~40%
[3]; saturation, 30 min incubation, n=3
  Kd: 0.9 ± 0.14 nM
other
  melting point: 195 °C
[4]; CA3 field and dentate gyrus of hippocampal formation, thalamus, olfactory tubercle, amygdala, substantia nigra reticulata
  specific binding in autoradiography: moderate signal
[4]; cerebral cortex, caudate putamen, ventral pallidum, nucleus accumbens
  specific binding in autoradiography: lower labelling
[4]; molecular layer of the cerebellum
  specific binding in autoradiography: Very high specific binding
